Values quoted from earlier work in patent publication US20250032516A1, “COMPOSITIONS AND METHODS FOR TREATING EPILEPSY” (POVIVA CORP, priority 2023, published 2025).
Where two headings read alike, the source gives them in different places.

Conditions: children with Dravet syndrome

C=C(C)[C@@H]1CCC(C)=C[C@H]1c1c(O)cc(CCCCC)cc1O [Cannabidiol, 2-[(1R,6R)-6-Isopropenyl-3-methylcyclohex-2-en-1-yl]-5-pentylbenzene-1,3-diol]
Plasma concentration on Day 1 at starting CBD dose, 5 hours, Mean (SD) (5 mg/kg/day group (N = 10)): 10.0 (5.74) ng/mL
Plasma concentration on Day 1 at starting CBD dose, […], Mean (SD) (5 mg/kg/day group (N = 10)): 37.6 (53.7) ng/mL
Plasma concentration on Day 1 at starting CBD dose, 5 hours, Mean (SD) (10 mg/kg/day group (N = 8)): 11.3 (11.7) ng/mL
Plasma concentration on Day 1 at starting CBD dose, […], Mean (SD) (10 mg/kg/day group (N = 8)): 34.4 (32.1) ng/mL
Plasma concentration on Day 1 at starting CBD dose, 5 hours, Mean (SD) (20 mg/kg/day group (N = 9)): 25.3 (42.4) ng/mL
Plasma concentration on Day 1 at starting CBD dose, […], Mean (SD) (20 mg/kg/day group (N = 9)): 29.3 (28.5) ng/mL
